In patent US20160175318A1, “COMPOSITIONS COMPRISING ANTIBACTERIAL AGENT AND TAZOBACTAM” (WOCKHARDT LIMITED, priority 2013, published 2016):
Read-outs that look alike come from different tables or passages of the source.

Key:
Experiment in all cases: MIC by agar dilution (CLSI) against highly resistant ESBL strain
Type in all cases: cell-based
E. coli M50 = system: E. coli M50
Description: (§1) The results on activity of cefepime and other cephalosporin antibacterial agents in combination with tazobactam against highly resistant ESBL strains are given Table 1. In a typical study, overnight grown bacterial cultures were diluted appropriately and inoculated on the agar media containing doubling dilutions of the antibiotic. Observation for growth or no growth was performed after 16-20 h of incubation at 35±2° C. in ambient air. The overall procedure was performed as per Clinical and Laboratory Standards Institute (CLSI) recommendations. This experimental was followed for Examples 2-4 and 6 below (Table 2-4 and 7).

E. coli 7MP = system: E. coli 7MP
Description: as §1

E. cloacae M-20 = system: E. cloacae M-20
Description: as §1

E. coli B123 = system: E. coli B123
Description: as §1

E. coli B-89 = system: E. coli B-89
Description: as §1

[1] = Escherichia coli, M50, 20 h, Tazobactam 0 mcg (antibiotic alone)
[2] = E. coli 7MP, with Tazobactam 4 mcg
[3] = E. coli 7MP, with Tazobactam 8 mcg
[4] = E. cloacae M-20, with Tazobactam 4 mcg
[5] = E. cloacae M-20, with Tazobactam 8 mcg
[6] = Enterobacter cloacae, M20, 20 h
[7] = Escherichia coli, B123, E. coli B123, with Tazobactam 4 mcg, read-out: MIC
[8] = Escherichia coli, B123, E. coli B123, with Tazobactam 8 mcg, read-out: MIC
[9] = E. coli B-89, with Tazobactam 4 mcg
[10] = E. coli B-89, with Tazobactam 8 mcg

Compound | MIC (E. coli M50; [1]) [µg/mL] | MIC (E. coli M50; with Tazobactam 4 mcg) [µg/mL] | MIC (E. coli M50; with Tazobactam 8 mcg) [µg/mL] | MIC (E. coli 7MP; [2]) [µg/mL] | MIC (E. coli 7MP; [3]) [µg/mL] | MIC (E. coli 7MP; Escherichia coli, 7MP, 20 h) [µg/mL] | MIC (E. cloacae M-20; [4]) [µg/mL] | MIC (E. cloacae M-20; [5]) [µg/mL] | MIC (E. cloacae M-20; [6]) [µg/mL] | MIC (E. coli B123; Escherichia coli, B123) [µg/mL] | MIC (E. coli B123; [7]) [µg/mL] | MIC (E. coli B123; [8]) [µg/mL] | MIC (E. coli B-89; [9]) [µg/mL] | MIC (E. coli B-89; [10]) [µg/mL] | MIC (E. coli B-89; Escherichia coli, B89, 20 h) [µg/mL] | MIC (E. coli 7MP; E. coli 7MP, Tazobactam 0 mcg (antibiotic alone)) [µg/mL] | MIC (E. coli B123; E. coli B123, Tazobactam 0 mcg (antibiotic alone)) [µg/mL] | MIC (E. coli B123; E. coli B123, with Tazobactam 4 mcg) [µg/mL] | MIC (E. coli B123; E. coli B123, with Tazobactam 8 mcg) [µg/mL] | MIC (E. coli B-89; E. coli B-89, Tazobactam 0 mcg (antibiotic alone)) [µg/mL]
CC(C)(O/N=C(\C(=O)N[C@@H]1C(=O)N2C(C(=O)[O-])=C(C[n+]3ccccc3)CS[C@H]12)c1csc(N)n1)C(=O)O [Ceftazidime] | > 128 | >64 | >64 | >64 | >64 | > 128 | >64 | 64 | > 128 | > 128 | > 64 | > 64 | >64 | 64 | > 128 | – | – | – | – | –
CO/N=C(\C(=O)N[C@@H]1C(=O)N2C(C(=O)O)=C(CSc3nc(=O)c(=O)[nH]n3C)CS[C@H]12)c1csc(N)n1 [Ceftriaxone] | 128 | – | 64 | >64 | >64 | > 128 | >64 | >64 | > 128 | > 128 | > 64 | > 64 | >64 | >64 | > 128 | >128 | >128 | >64 | >64 | >128
